Data on 74 compounds can be found in PubChem BioAssay AID179 (DTP/NCI, 2004).

Where “and” joins values, the source holds several entries; their conditions need not be identical. Equal values may be shown once. Calls of active or inactive are those of the source.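 How the source made its calls: active means compounds giving half or more protection of infected cells from virus-caused growth loss, again on retest; inactive means the rest.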 Bounds are passed on as bounds.

As usually defined, the EC50 is the concentration at which the effect is half-maximal. In general, IC50 refers to the concentration that inhibits the measured activity by half. A low value points to inhibition by little substance.

In the test the test system is CEM cells HIV-1 protection, formazan growth assay. The test can be described thus: NCI AIDS Antiviral Assay. As to conditions: for IC50: measured here: growth of uninfected CEM cells. The method, boiled down:
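Category rules: moderately active means at least 50% protection on retest, and confirmed active means 100% protection reproducibly. The underlying data came from a formazan growth assay in HIV-1-infected CEM cells.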

As for `COC(=O)CCc1ccc2c(c1)CC1(C2)Cc2ccc3c(c2C1)CCC3` (centres undefined), the EC50 is more than 200 µM and the half-inhibitory concentration (IC50) was more than 200 µM. Regarding `Cc1nc(/C=C2\C(=O)C=Cc3ccccc32)c(O)o1`, the EC50 is more than 102 µM and the 50% inhibitory concentration (IC50) was more than 102 µM. As to `CCOC(=O)C1C/C(=N\OC(C)=O)c2ccc(OC)c(OC)c2C1` (centres undefined), the result was inactive. On to `O=C(O)CCC(NC(=O)c1ccc(Nc2nc3ccc(C(F)(F)F)cc3nc2C(=O)O)cc1)C(=O)O` (centres undefined), for which the EC50 is more than 200 µM and the IC50 was more than 200 µM. In the case of `CC(=O)N(NC(=O)P(=O)(OC(C)C)OC(C)C)c1ccc([N+](=O)[O-])cc1`, the EC50 is more than 129 µM and the IC50 was more than 129 µM. For `CCOC(=O)C1NS(=O)(=O)NC(C(=O)OCC)NS(=O)(=O)N1` (centres undefined), the outcome was inactive. For `FC(F)(F)C(F)(F)c1nnc(C(F)(F)C(F)(F)F)o1`, the EC50 is more than 200 µM and the IC50 was more than 200 µM. Turning to `O=[N+]([O-])c1ccc(S(=O)(=O)N/N=C/c2ccco2)cc1`, the EC50 is more than 316 µM and the IC50 was found to be 166 µM.

Consider `CC1=C(C(=O)NCCc2ccccc2)CC(C(=O)NCCc2ccccc2)=C(C)N1`, for which the EC50 is more than 200 µM and the IC50 was found to be 123 µM. For `CCOC(=O)c1cc2nc3ccccc3c(=O)n2c2ccccc12`, in that order: more than 200 µM and more than 200 µM.

In the case of `O=C(N[C@H]1c2ccsc2/C(=N/O)[C@H]1O)C(F)(F)F`, the EC50 was more than 200 µM and the 50% inhibitory concentration (IC50) is more than 200 µM. As to `CCOC(=O)CNC(=O)c1cccc2c(Nc3ccc(S(=O)(=O)Nc4cc(C)on4)cc3)c3ccccc3nc12`, the EC50 is more than 200 µM and the IC50 came to 12.3 µM. As for `CC(C)C(Nc1c2ccccc2nc2ccccc12)C(=O)O` (centres undefined), the outcome was inactive. In the case of `C=C1CCOC2(C(O)C(C)(O)CO)NC(=O)C1(O)NC2=O` (centres undefined), the outcome was inactive. On to `O=C1c2ccsc2C(=O)c2ccsc21`, for which the EC50 was more than 6.61 µM and the IC50 was 5.13 µM. For `CC(C)=CC(=O)OC1C2C(C)=CC(=O)C(O)C2(C)C2C3(O)OCC24C(CC(=O)OC14)C(C)C3O` (centres undefined), in that order: more than 0.2 µM and 0.0112 µM. Take `Cc1cc(S(=O)(=O)Nc2nncn2-c2ccc(Cl)cc2)c(S)cc1Cl`: the result was inactive. The same measure, in the same setting: the result for `Cc1cc(O)c(/C=N/C(=S)Nc2cccc(C)c2C)c(=O)o1` reads “inactive”. For the compound `CC(=O)/C(=C/c1ccc(Cl)cc1)C(=O)c1ccccc1`, the EC50 is more than 66.1 µM and the IC50 was determined as 11.7 µM. For `CCN(CC)Cc1c(OC)ccc2[nH]c3c4ccc(Cl)cc4ncc3c12`, in that order: more than 200 µM and 1.1 µM. For `COc1ccc(NC(=O)Nc2onc(C)c2C)c(Cl)c1`, in that order: more than 191 µM and 151 µM. For `CO/C(=N\N=C(/c1ccccc1)C(F)(F)F)c1ccncc1`, in that order: more than 200 µM and 27.5 µM. Take `O=C(CCC(=O)Nc1cccc(Cl)c1)CC(=O)c1ccc(Cl)cc1`: the result was inactive. In the case of `CC1(O)C(=O)OC2CC([C@]3(O)CCC4[C@@H]5C[C@H]6O[C@]67[C@@H](O)C=CC(=O)[C@]7(C)C5CC[C@@]43C)C1(C)C2` (some centres undefined), the EC50 is more than 200 µM and the IC50 stood at 11.7 µM.

As for `CC(C)(C)c1ccc(-c2nc3ccc([N+](=O)[O-])cc3c(=O)o2)cc1`, the EC50 is more than 200 µM and the IC50 turned out to be 8.91 µM. For `O=C(NCCCN1CC2CCCC2C1)C(C1CCCCC1)C1CCCCC1` (centres undefined), in that order: more than 200 µM and 11.5 µM. For `C[N+]12C=CC=C1C(N1CCCC1)c1sc(-c3ccc(Cl)cc3)cc12` (centres undefined), in that order: more than 200 µM and 12.9 µM.

In the case of `CSc1nc2c(c(=O)n1C)N=C(c1ccccc1)[C@H](C(CC(=O)c1ccccc1)c1ccccc1)C(c1ccccc1)N2` (some centres undefined), the EC50 is more than 200 µM and the IC50 was determined as 47.9 µM. For `COc1ccc(C2CC(=O)c3c(O)cc(O)cc3O2)cc1O` (centres undefined), in that order: more than 832 µM and 74.1 µM. For `CCOc1ccc(-c2oc(/C=N/NS(=O)(=O)c3ccc(C)cc3)c([N+](=O)[O-])c2-c2ccc(OCC)cc2)cc1`, in that order: more than 3.63 µM and more than 3.63 µM. For `O=C(Nc1nc(C23CC4CC(CC(C4)C2)C3)cs1)c1c(O)c2ccccc2[nH]c1=O`, in that order: more than 200 µM and more than 200 µM. `O=C1[C@H]2ON(c3ccccc3)C(c3ccccc3Cl)[C@H]2C(=O)N1c1ccc(Cc2ccc(N3C(=O)[C@@H]4ON(c5ccccc5)C(c5ccccc5Cl)[C@@H]4C3=O)cc2)cc1` (some centres undefined): the EC50 is more than 8.71 µM and the IC50 was more than 8.71 µM. `SCCCSCCSCCCSCCS`: the EC50 is more than 17.4 µM and the IC50 was more than 17.4 µM. Turning to `CN(C)CC[N+]1=Nc2cccc3cccc(c23)N1`, the outcome was inactive. As for `Nc1ncc(/C=C/CNC(=O)c2ccc[nH]2)[nH]1`, the EC50 was more than 1070 µM and the IC50 stood at 155 µM. Take `CCc1c(C#N)c(=O)[nH]c(=O)n1CCN1CCN(C(=O)NCCCCCCNC(=O)N2CCN(CCn3c(CC)c(C#N)c(=O)[nH]c3=O)CC2)CC1`: the result was inactive.

Consider `COc1ccc(C2ON(c3ccccc3)CC=C2C)cc1` (centres undefined), for which the EC50 is more than 35.5 µM and the IC50 was more than 35.5 µM. For `CC(=O)CC(=O)CCCC(=O)Nc1ccc(Cl)cc1C`, the result was inactive. As for `CCc1ccccc1N=NC(=O)NNc1ccccc1CC`, the EC50 was more than 200 µM and the IC50 stood at 70.8 µM. For `COC1/C=C/OC2(C)Oc3c(C)c(O)c4c(O)c(c(/C=N/NC5CCCCCCCCCCCCCC5)c(O)c4c3C2=O)NC(=O)/C(C)=C\C=C\C(C)C(O)C(C)C(O)C(C)C(OC(C)=O)C1C` (centres undefined), in that order: more than 200 µM and 10.5 µM.

For `CCSc1nc2cccc([N+](=O)[O-])c2n1CC`, the result was inactive. Turning to `COc1ccc2nc3cc(Cl)ccc3c(Sc3ccc([N+](=O)[O-])cc3)c2c1`, the EC50 was more than 4.79 µM and the 50% inhibitory concentration (IC50) was more than 4.79 µM. Turning to `O=c1[nH]c2nc3ccccc3nc2[nH]c1=O`, the IC50 is > 200 µM and 151 µM. `O=C(Nc1ccc(Cl)cc1C(=O)O)c1ccc([N+](=O)[O-])cc1`: the result was inactive. Turning to `N#Cc1c(C#N)c(-c2ccccc2)n(-c2ccccc2)c1N`, the EC50 was more than 200 µM and the IC50 is 53.7 µM. For `CC(C)COC(=O)NC1C(=O)N2C1SC(C)(C)C2C(=O)O` (centres undefined) (tested in a mixture with another compound), in that order: 87.1 µM and more than 200 µM. For `CC1(C)OC(=O)c2c(cc(N3CCOCC3)oc2=O)O1`, in that order: more than 200 µM and more than 200 µM. `O=C1CC(c2ccccc2)Oc2cc(O)cc(O)c21` (centres undefined): the EC50 was more than 200 µM; the IC50 is 34.7 µM and > 200 µM and 55 µM. As to `CCCCN(CCCC)C1=Nc2ccccc2-n2c(nnc2C(=O)OCC)C1`, the EC50 was more than 200 µM and the 50% inhibitory concentration (IC50) came to 41.7 µM.

Regarding `COc1ccc(/C=N\N2C(=O)Cc3ccccc32)cc1`, the EC50 was more than 37.2 µM and the IC50 is more than 37.2 µM. Consider `C[C@@H]1C(=O)CC2(O)[C@@]13C[C@@H](OC(=O)[C@@H]3O)[C@@H](C)[C@@]21COC1=O` (some centres undefined), for which the EC50 is more than 813 µM and the IC50 was more than 813 µM. With `O=C1CC(c2ccccc2)S(=O)c2ccccc2N1` (centres undefined), the EC50 is more than 200 µM and the concentration for half-maximal inhibition (IC50) was more than 200 µM.

`COc1cc2c(cc1OC)C(c1ccc(N=Cc3ccc(N(C)C)cc3)cc1)N(C(=S)Nc1cc(Cl)ccc1Cl)CC2` (centres undefined): the outcome was inactive. Same read-out and setting: the result for `CN(C)CC(C)(C)/C(=N\Nc1ccccc1)c1ccccc1` reads “inactive”.

For `CC1(C)OC(=O)C(C#N)=C1/C=C\c1ccco1`, the EC50 is more than 1100 µM and the IC50 was more than 1100 µM. On to `COC(=O)c1cc2nc(NC(C)=O)sc2n1C`, for which the EC50 was more than 200 µM and the IC50 was more than 200 µM. For `CC(C)C1=CC2=CCC3C(C)(COC(=O)COc4ccccc4)CCCC3(C)C2CC1` (centres undefined), the EC50 was more than 200 µM and the IC50 was 46.8 µM. As for `O=C(O)c1c([N+](=O)[O-])cc(C(F)(F)F)cc1[N+](=O)[O-]`, the outcome was inactive. Turning to `Cc1ccc(C(=O)O)cc1NC(=O)c1cc(/C=C/c2ccccc2)[nH]c(=S)n1`, the EC50 is more than 240 µM and the IC50 is more than 240 µM. As for `CNC(=O)OCC1=CC(=O)C(C)=CC1=O`, the EC50 was more than 60.3 µM and the IC50 is 5.5 µM. For `Cc1cn(C2CC(SCCO)C(CO)O2)c(=O)[nH]c1=O` (centres undefined), in that order: more than 200 µM and more than 200 µM. For the compound `CC(C)C(O)C(=O)C(O)C(C)C` (centres undefined), the EC50 is more than 1020 µM and the IC50 was more than 1020 µM. For `C=CC[P+](c1ccccc1)(c1ccccc1)c1ccccc1`, the EC50 was more than 20 µM; the IC50 is 0.562 µM and 0.427 µM. `O=C1NC2NC3NC(=O)NC3NC2N1` (centres undefined): the EC50 was more than 200 µM and the IC50 is more than 200 µM. Consider `Clc1ccc(COC(Cn2ccnc2)c2ccc(Cl)cc2Cl)cc1` (centres undefined), for which the EC50 was more than 200 µM and the IC50 came to 34.7 µM. Consider `Clc1cccc(C2SCc3nc4ccccc4n32)c1Cl` (centres undefined), for which the outcome was inactive. On to `c1ccc(-c2nnc(-c3ccccc3)c3nonc23)cc1`, for which the EC50 was more than 95.5 µM and the IC50 was more than 95.5 µM. Take `N#C/C(=C\c1cc(O)c(O)c(I)c1)C(=O)NCCCc1ccccc1`: the EC50 is more than 200 µM and the IC50 is 9.55 µM. With `CCn1c(N)c(N=O)c(=O)n(CC)c1=O`, the EC50 is more than 200 µM and the IC50 is more than 200 µM.

`O=C1CCCN1CC#CCN1C[C@@H]2C3CCC(C3)[C@@H]2C1`: the EC50 was more than 200 µM and the half-inhibitory concentration (IC50) turned out to be 170 µM. With `O=C(NCC(O)CNC(=O)C(F)(F)F)C(F)(F)F`, the result was inactive. Take `O=S(c1ccccc1)C1CC2CC3(CCC21O)OCCO3` (centres undefined): the EC50 is more than 200 µM and the IC50 is more than 200 µM.

Regarding `COc1ccc(Br)c(N/N=C2\CCCNC2=O)c1`, the outcome was inactive.

Take `COc1cc(C(O)(CC#N)c2cc3c(cc2Br)OCO3)cc(OC)c1OC` (centres undefined): the EC50 was more than 200 µM and the IC50 came to 10 µM.
